These results are taken from patent US20100068545A1, “Compositions and methods for wood preservation” (priority 2005, published 2010).

SMILES strings stand for the structures.

Experiment [1] deals with brown rots or white rots. As to the kind of experiment: Accelerated decay testing in the lab. As to conditions: pyrethroid insecticide alone. The text has this: Provided herein is an organic composition and method for use thereof in treatment of cellulosic material, more particularly wood. The composition comprises an azole or quaternary ammonium fungicide compound, and a pyrethroid insecticide. The composition imparts to the treated wood resistance to both fungi and insects. […] This has been confirmed by accelerated decay testing in the lab.

Experiment [2] deals with termites. The experiment is described as follows: AWPA E7-01 field stake test, termite ratings, Gainesville, Florida. The arrangement: scale not given here. It counts as in vivo. How it is done:
(§1) Preservative treating solutions were prepared by the mixing the concentrates in Example 1 with ethanol. The treated stakes were installed in Gainesville, Fla. for field performance evaluation following the procedure described in American Wood Preservers' Association (AWPA) Standard E7-01: “Standard Method of Evaluating Wood Preservatives by Field Tests with Stakes”.
(§2) Preservative treating solutions were prepared by the mixing the concentrates in Example 1 with toluene. The treated stakes were installed in Gainesville, Fla. for field performance evaluation following the procedure described in American Wood Preservers' Association (AWPA) Standard E7-01: “Standard Method of Evaluating Wood Preservatives by Field Tests with Stakes”.
Preservative treating solutions were prepared by the mixing the concentrates in Example 2 and 13. The treated stakes were installed in Gainesville, Fla. for field performance evaluation following the procedure described in American Wood Preservers' Association (AWPA) Standard E7-01: “Standard Method of Evaluating Wood Preservatives by Field Tests with Stakes”.
Preservative treating solutions were prepared by the mixing the concentrates in Example 1 with white spirits. The treated stakes were installed in Gainesville, Fla. for field performance evaluation following the procedure described in American Wood Preservers' Association (AWPA) Standard E7-01: “Standard Method of Evaluating Wood Preservatives by Field Tests with Stakes”.

The subject of experiment [3] is decay fungi. The experiment is described as follows: AWPA E7-01 field stake test, decay ratings, Gainesville, Florida. It is filed as in vivo. The arrangement: scale not given here. How it is done: as §1, §2
Preservative treating solutions were prepared by the mixing the concentrates in Example 2 and 13. The treated stakes were installed in Gainesville, Fla. for field performance evaluation following the procedure described in American Wood Preservers' Association (AWPA) Standard E7-01: “Standard Method of Evaluating Wood Preservatives by Field Tests with Stakes”. […]

The mark [4] stands for this setting: 12 months, retention 0.32 kg/m^3, Ex. 14, ethanol solution.
Where [5] appears, read: 12 months, retention 0.32 kg/m^3, Ex. 15, toluene solution.
Where [6] appears, read: 12 months, retention 0.32 kg/m^3, Ex. 16, concentrates of Ex. 2 and 13.
The mark [7] stands for this setting: 12 months, retention 0.48 kg/m^3, Ex. 14, ethanol solution.
Setting [8] is: 12 months, retention 0.48 kg/m^3, Ex. 15, toluene solution.
[9] abbreviates: 12 months, retention 0.48 kg/m^3, Ex. 16, concentrates of Ex. 2 and 13.
Where [10] appears, read: 12 months, retention 0.64 kg/m^3, Ex. 14, ethanol solution.
The mark [11] stands for this setting: 12 months, retention 0.64 kg/m^3, Ex. 15, toluene solution.
Where [12] appears, read: 12 months, retention 0.64 kg/m^3, Ex. 16, concentrates of Ex. 2 and 13.
Setting [13] is: 24 months, retention 0.32 kg/m^3, Ex. 14, ethanol solution.
Where [14] appears, read: 24 months, retention 0.32 kg/m^3, Ex. 15, toluene solution.
Where [15] appears, read: 24 months, retention 0.32 kg/m^3, Ex. 16, concentrates of Ex. 2 and 13.
Setting [16] is: 24 months, retention 0.48 kg/m^3, Ex. 14, ethanol solution.
Where [17] appears, read: 24 months, retention 0.48 kg/m^3, Ex. 15, toluene solution.
Setting [18] is: 24 months, retention 0.48 kg/m^3, Ex. 16, concentrates of Ex. 2 and 13.
The mark [19] stands for this setting: 24 months, retention 0.64 kg/m^3, Ex. 14, ethanol solution.
Where [20] appears, read: 24 months, retention 0.64 kg/m^3, Ex. 15, toluene solution.
Setting [21] is: 24 months, retention 0.64 kg/m^3, Ex. 16, concentrates of Ex. 2 and 13.
[22] abbreviates: 36 months, retention 0.32 kg/m^3, Ex. 14, ethanol solution.
The mark [23] stands for this setting: 36 months, retention 0.32 kg/m^3, Ex. 15, toluene solution.
The mark [24] stands for this setting: 36 months, retention 0.32 kg/m^3, Ex. 16, concentrates of Ex. 2 and 13.
Setting [25] is: 36 months, retention 0.48 kg/m^3, Ex. 14, ethanol solution.
Setting [26] is: 36 months, retention 0.48 kg/m^3, Ex. 15, toluene solution.
[27] abbreviates: 36 months, retention 0.48 kg/m^3, Ex. 16, concentrates of Ex. 2 and 13.
Where [28] appears, read: 36 months, retention 0.64 kg/m^3, Ex. 14, ethanol solution.
Setting [29] is: 36 months, retention 0.64 kg/m^3, Ex. 15, toluene solution.
Where [30] appears, read: 36 months, retention 0.64 kg/m^3, Ex. 16, concentrates of Ex. 2 and 13.
[31] abbreviates: 48 months, retention 0.32 kg/m^3, Ex. 14, ethanol solution.
[32] abbreviates: 48 months, retention 0.32 kg/m^3, Ex. 15, toluene solution.
Where [33] appears, read: 48 months, retention 0.32 kg/m^3, Ex. 16, concentrates of Ex. 2 and 13.
The mark [34] stands for this setting: 48 months, retention 0.48 kg/m^3, Ex. 14, ethanol solution.
[35] abbreviates: 48 months, retention 0.48 kg/m^3, Ex. 15, toluene solution.
The mark [36] stands for this setting: 48 months, retention 0.48 kg/m^3, Ex. 16, concentrates of Ex. 2 and 13.
Setting [37] is: 48 months, retention 0.64 kg/m^3, Ex. 14, ethanol solution.
Where [38] appears, read: 48 months, retention 0.64 kg/m^3, Ex. 15, toluene solution.
[39] abbreviates: 48 months, retention 0.64 kg/m^3, Ex. 16, concentrates of Ex. 2 and 13.

With `Cc1c(COC(=O)[C@@H]2[C@H](/C=C(\Cl)C(F)(F)F)C2(C)C)cccc1-c1ccccc1` (racemic) [bifenthrin], the “Fungicidal activity against brown rots or white rots” value (from here on “Fungicidal activity”) in experiment [1] was “generally do not have fungicidal activity”.
As to `CC1(C)C(C=C(Cl)Cl)C1C(=O)OCc1cccc(Oc2ccccc2)c1` (stereo not drawn) [permethrin], in experiment [1], the “Fungicidal activity” value was “generally do not have fungicidal activity”.
As to `CC(C)(C)C(O)(CCc1ccc(Cl)cc1)Cn1cncn1` (racemic) [Tebuconazole, (RS)-1-p-chlorophenyl-4,4-dimethyl-3-(1H-1,2,4-triazol-1-ylmethyl)pentan-3-ol], the “Average Termite Rating” value in experiment [2] (setting [4]) is 4.2; in experiment [2] (setting [5]), 4.2; in experiment [2] (setting [6]), 4.2; in experiment [2] (setting [7]), 4.5; in experiment [2] (setting [8]), 4.5; in experiment [2] (setting [9]), 4.5. For the same compound, the “Average Termite Rating” value in experiment [2] (setting [10]) is given as 4.8; in experiment [2] (setting [11]) it was 4.8; in experiment [2] (setting [12]) it was 4.8; in experiment [2] (setting [13]) it was 0.6; in experiment [2] (setting [14]) it was 0.6; in experiment [2] (setting [15]) it was 0.6. Besides, the “Average Termite Rating” value in experiment [2] (setting [16]) was determined as 1.2; in experiment [2] (setting [17]), 1.2; in experiment [2] (setting [18]), 1.2; in experiment [2] (setting [19]), 2.0; in experiment [2] (setting [20]) it was 2.0; in experiment [2] (setting [21]), 2.0. For the same compound, the “Average Termite Rating” value in experiment [2] (setting [22]), in experiment [2] (setting [23]), in experiment [2] (setting [24]), in experiment [2] (setting [25]), in experiment [2] (setting [26]) and in experiment [2] (setting [27]) was 0.0 throughout. The “Average Termite Rating” value in experiment [2] (setting [28]), in experiment [2] (setting [29]), in experiment [2] (setting [30]), in experiment [2] (setting [31]), in experiment [2] (setting [32]) and in experiment [2] (setting [33]) was 0.0 throughout. Further, the “Average Termite Rating” value in experiment [2] (setting [34]), in experiment [2] (setting [35]), in experiment [2] (setting [36]), in experiment [2] (setting [37]), in experiment [2] (setting [38]) and in experiment [2] (setting [39]) was 0.0 each time. Further, the “Average Decay Rating” value in experiment [3] (setting [4]) amounted to 8.2; in experiment [3] (setting [5]), 8.2; in experiment [3] (setting [6]), 8.2; in experiment [3] (setting [7]) it was 5.8; in experiment [3] (setting [8]), 5.8; in experiment [3] (setting [9]), 5.8. Besides, the “Average Decay Rating” value in experiment [3] (setting [10]) is 8.7; in experiment [3] (setting [11]) it was 8.7; in experiment [3] (setting [12]), 8.7; in experiment [3] (setting [13]) it was 2.6; in experiment [3] (setting [14]), 2.6; in experiment [3] (setting [15]), 2.6. Also, the “Average Decay Rating” value in experiment [3] (setting [16]) was determined as 0.8; in experiment [3] (setting [17]) it was 0.8; in experiment [3] (setting [18]) it was 0.8; in experiment [3] (setting [19]), 1.2; in experiment [3] (setting [20]), 1.2; in experiment [3] (setting [21]), 1.2. The “Average Decay Rating” value in experiment [3] (setting [22]), in experiment [3] (setting [23]), in experiment [3] (setting [24]), in experiment [3] (setting [25]), in experiment [3] (setting [26]) and in experiment [3] (setting [27]) was 0.0 throughout. In addition, the “Average Decay Rating” value in experiment [3] (setting [28]), in experiment [3] (setting [29]), in experiment [3] (setting [30]), in experiment [3] (setting [31]), in experiment [3] (setting [32]) and in experiment [3] (setting [33]) was 0.0 throughout. The “Average Decay Rating” value in experiment [3] (setting [34]), in experiment [3] (setting [35]), in experiment [3] (setting [36]), in experiment [3] (setting [37]), in experiment [3] (setting [38]) and in experiment [3] (setting [39]) was 0.0 each time.
As for `CC1(C)C(C=C(Cl)Cl)C1C(=O)OC(C#N)c1cccc(Oc2ccccc2)c1` (stereo not drawn) [cypermethrin], the “Fungicidal activity” value in experiment [1] is listed as “generally do not have fungicidal activity”.
